# Experimental data published in PubChem BioAssay AID651792 (The Scripps Research Institute Molecular Screening Center, 2012).
# Active and inactive are the calls of the source. How the calls were made is not given here.
# Test system: FXN GAA850 promoter luciferase reporter, luminescence
# Experiment: GAA850 FXN promoter activators, dose response, cell-based, luminescence, GAA850 repeat (AID 651792)
row,SMILES,EC50
1,Fc1ccc(-c2nnc(Nc3nc4c(F)cccc4s3)o2)cc1,> 59.6 µM (inactive)
2,COc1ccc(-c2nnc(Nc3nc4c(F)cccc4s3)o2)c(OC)c1,> 59.6 µM (inactive)
3,COc1ccc(-c2nnc(Nc3nc4c(OC)cccc4s3)o2)c(OC)c1,> 59.6 µM (inactive)
4,COc1ccccc1NC(=O)c1cnc(SCC(=O)Nc2ccc3c(c2)OCO3)n(C)c1=O,> 59.6 µM (inactive)
5,CSc1ccc2nc(Nc3nnc(-c4ccccc4Cl)o3)sc2c1,> 59.6 µM (inactive)
6,COc1cccc2sc(Nc3nnc(-c4ccccc4Cl)o3)nc12,> 59.6 µM (inactive)
7,COc1ccccc1NC(=O)c1cnc(SCC(=O)NCc2ccc3c(c2)OCO3)n(C)c1=O,> 59.6 µM (inactive)
8,CCc1nnc(NC(=O)CSc2ncc(C(=O)Nc3ccc(C)c(C)c3)c(=O)n2C)s1,> 59.6 µM (inactive)
9,CSc1ccc2nc(Nc3nnc(-c4ccc5c(c4)OCCO5)o3)sc2c1,> 59.6 µM (inactive)
10,COc1ccccc1CNC(=O)CSc1ncc(C(=O)Nc2ccccc2)c(=O)n1C,> 59.6 µM (inactive)
11,COc1ccc(-c2nnc(Nc3nc4ccc(OC)cc4s3)o2)c(OC)c1,> 59.6 µM (inactive)
12,COc1ccccc1NC(=O)c1cnc(SCC(=O)NCC2CCCO2)n(C)c1=O (configuration not stated),> 59.6 µM (inactive)
13,COc1ccccc1NC(=O)c1cnc(SCC(=O)Nc2cc(C)on2)n(C)c1=O,> 59.6 µM (inactive)
14,COc1ccccc1NC(=O)c1cnc(SCC(=O)NCc2ccccc2)n(C)c1=O,> 59.6 µM (inactive)
15,Fc1ccc2nc(Nc3nnc(-c4ccccc4Cl)o3)sc2c1,> 59.6 µM (inactive)
16,COc1ccccc1-c1nnc(Nc2nc3ccc(F)cc3s2)o1,> 59.6 µM (inactive)

row,SMILES,EC50
1,COc1ccc(-c2nnc(Nc3nc4cc(OC)ccc4s3)o2)c(OC)c1,> 59.6 µM (inactive)
2,Cn1c(SCC(=O)NCC2CCCO2)ncc(C(=O)Nc2ccc(Cl)cc2)c1=O (configuration not stated),> 59.6 µM (inactive)
3,COc1ccccc1-c1nnc(Nc2nc3c(OC)cccc3s2)o1,> 59.6 µM (inactive)
4,COc1ccc(-c2nnc(Nc3nc4ccc(F)cc4s3)o2)c(OC)c1,> 59.6 µM (inactive)
5,COc1ccccc1NC(=O)c1cnc(SCC(=O)NCCc2ccccc2)n(C)c1=O,> 59.6 µM (inactive)
6,Fc1cccc2sc(Nc3nnc(-c4ccccc4Cl)o3)nc12,> 59.6 µM (inactive)
7,Clc1ccc(-c2nnc(Nc3nc4cc5c(cc4s3)OCO5)o2)cc1,> 59.6 µM (inactive)
8,Cn1c(SCC(=O)NCC2CCCO2)ncc(C(=O)Nc2ccccc2)c1=O (configuration not stated),> 59.6 µM (inactive)
9,COc1cccc2sc(Nc3nnc(-c4ccc(F)cc4)o3)nc12,> 59.6 µM (inactive)
10,Cc1ccc(NC(=O)c2cnc(SCC(=O)Nc3cccc(C(F)(F)F)c3)n(C)c2=O)cc1C,> 59.6 µM (inactive)
11,COc1cccc2sc(Nc3nnc(-c4ccccc4)o3)nc12,> 59.6 µM (inactive)
12,COc1ccc(-c2nnc(Nc3nc4ccc(SC)cc4s3)o2)c(OC)c1,> 59.6 µM (inactive)
13,COc1ccc(-c2nnc(Nc3nc4c(OC)cccc4s3)o2)cc1,> 59.6 µM (inactive)
14,Clc1ccccc1-c1nnc(Nc2nc3cc4c(cc3s2)OCO4)o1,> 59.6 µM (inactive)
15,COc1ccccc1NC(=O)c1cnc(SCC(=O)Nc2nc3ccccc3s2)n(C)c1=O,> 59.6 µM (inactive)
16,Cn1c(SCC(=O)NCC2CCCO2)ncc(C(=O)Nc2ccc(F)cc2)c1=O (configuration not stated),> 59.6 µM (inactive)
